≈ marks a conversion by molar mass, not a printed value. Entries after “also recorded” stand apart in the source; their conditions may differ. Read-outs that look alike come from different tables or passages of the source.
Key:
HIV-1 = test: CEM-SS microtiter antiviral XTT cytoprotection assay; assay type: cell-based
[1] = tested on: HIV-1 ROJO (low passage clinical strain); test: PBMC assay, virus production by reverse transcriptase activity; assay type: cell-based; settings: PBMCs
several bacteria = assay type: cell-based
Yersinia pestis = test: microbe, parasite or virus in culture; assay type: cell-based
Bacillus anthracis = test: microbe, parasite or virus in culture; assay type: cell-based
Francisella tularensis = test: microbe, parasite or virus in culture; assay type: cell-based
Burkholderia mallei = test: microbe, parasite or virus in culture; assay type: cell-based
[2] = tested on: Burkholderia pseudomallei; test: microbe, parasite or virus in culture; assay type: cell-based
Mtb H37Rv (SRI 1345) [3] = test: microbe, parasite or virus in culture; assay type: cell-based, Mycobacterium tuberculosis; settings: for MIC: Mycobacterium tuberculosis, H37RV, 168 h, read-out: MIC H37Rv
Mtb H37Rv (SRI 1345) [4] = test: microbe, parasite or virus in culture; assay type: cell-based, Mycobacterium tuberculosis
[5] = tested on: Mtb H37Rv (SRI 1345), nonreplicating persistence; assay type: cell-based, Mycobacterium tuberculosis
[6] = tested on: Mtb H37Rv (SRI 1345) in murine J774 cells; assay type: cell-based, Mycobacterium tuberculosis
[7] = tested on: fresh human peripheral blood mononuclear cells
[8] = tested on: uninfected J774 macrophages; settings: mouse
Y. pestis C092 = assay type: in vivo, BALB/c mice
F. tularensis SCHU S4 = tested on: F. tularensis SCHU S4; parameters: species or system BALB/c mice; settings: mouse, in vivo
H37Rv Colorado strain [9] = test: TB MIC Testing (Table 9); assay type: cell-based; settings: Mycobacterium tuberculosis, read-out: MIC Value, Standard Test Strain H27Rv
H37Rv Colorado strain [10] = test: MBC Determination with H37Rv Colorado strain (Table 9); assay type: cell-based; settings: Mycobacterium tuberculosis; Performed with H37Rv
TB = test: DMID TB MIC Results (Table 10); assay type: cell-based; settings: Mycobacterium tuberculosis; solvent DMSO
B. anthracis = test: microbe, parasite or virus in culture; assay type: cell-based; settings: Bacillus anthracis, read-out: MIC B. anthracis
B. mallei = test: microbe, parasite or virus in culture; assay type: cell-based; settings: Burkholderia mallei, read-out: MIC B. mallei
B. pseudomallei = test: microbe, parasite or virus in culture; assay type: cell-based; settings: Burkholderia pseudomallei, read-out: MIC B. pseudomallei
F. tularensis = test: microbe, parasite or virus in culture; assay type: cell-based; settings: Francisella tularensis, read-out: MIC F. tularensis (Original Test)
Y. pestis = test: microbe, parasite or virus in culture; assay type: cell-based; settings: Yersinia pestis, read-out: MIC Y. pestis
E. coli = test: microbe, parasite or virus in culture; assay type: cell-based; settings: Escherichia coli, read-out: MIC E. coli
P. aeruginosa = test: microbe, parasite or virus in culture; assay type: cell-based; settings: Pseudomonas aeruginosa, read-out: MIC P. aeruginosa
Plasmodium falciparum = test: Anti-malaria testing; assay type: cell-based
[11] = mouse, in vivo
Vero Cells = test: Cytotoxicity Assay, CellTiter-Glo Luminescent Cell Viability Assay

## N=C(NCCCCCCNC(=N)NC(=N)N1CCN(c2cc3c(cc2F)c(=O)c(C(=O)O)cn3C2CC2)CC1)NC(=N)N1CCN(c2cc3c(cc2F)c(=O)c(C(=O)O)cn3C2CC2)CC1 [BVS-10A]
HIV-1; 0.00032 nG/mL
  % RED. IN VIRAL CPC: 3%
HIV-1; 0.001 nG/mL
  % RED. IN VIRAL CPC: 4%
HIV-1; 0.0032 nG/mL
  % RED. IN VIRAL CPC: 1%
HIV-1; 0.01 nG/mL
  % RED. IN VIRAL CPC: 4%
HIV-1; 0.032 nG/mL
  % RED. IN VIRAL CPC: 7%
HIV-1; 0.1 nG/mL
  % RED. IN VIRAL CPC: 2%
HIV-1; 0.32 nG/mL
  % RED. IN VIRAL CPC: 4%
HIV-1; 1 nG/mL
  % RED. IN VIRAL CPC: 9%
HIV-1; 3.2 nG/mL
  % RED. IN VIRAL CPC: 2%
HIV-1; 10 nG/mL
  % RED. IN VIRAL CPC: 11%
HIV-1; 32 nG/mL
  % RED. IN VIRAL CPC: 100%
HIV-1; 100 nG/mL
  % RED. IN VIRAL CPC: 100%
[1]
  concentrations at which active: greater than 3.2 μg/mL
Several bacteria
  minimum inhibitory concentrations (MIC), range over strains: <0.128 to 12.8 µg/mL
Yersinia pestis
  MIC Range: 0.125 to 0.5 µg/mL
Yersinia pestis; Yersinia pestis
  MIC50: 0.25 µg/mL (≈ 0.274 µM)
Bacillus anthracis
  MIC Range: 0.25 to 2 µg/mL
Bacillus anthracis; Bacillus anthracis
  MIC50: 0.5 µg/mL (≈ 0.548 µM)
Francisella tularensis
  MIC Range: <0.03125 to 0.25 µg/mL
Francisella tularensis; Francisella tularensis
  MIC50: 0.0625 µg/mL (≈ 0.0685 µM)
Burkholderia mallei
  MIC Range: 0.25 to 8 µg/mL
Burkholderia mallei; Burkholderia mallei
  MIC50: 1 µg/mL (≈ 1.1 µM)
  MIC90: ≥ 4 µg/mL
[2]
  MIC Range: 4 to 64 µg/mL
  isolates with MICs<16 μg/ml: 30%
[2]; Burkholderia pseudomallei
  MIC50: 32 µg/mL (≈ 35 µM)
  MIC90: 64 µg/mL (≈ 70.1 µM)
Mtb H37Rv (SRI 1345) [3]
  % inhibition at the MIC concentration: 66%
  MIC: 6.25 µg/mL (≈ 6.85 µM)
Mtb H37Rv (SRI 1345) [4]
  Colony Count: TNTC
[5]
  LORA: >6.25 µg/mL
[6]
  Microphage log reduction (low conc.): 1.14
  Microphage log reduction (mid conc.): 0.80
CEM-SS cells; 0.00032 nG/mL
  % CELL VIABILITY: 100%
CEM-SS cells; 0.001 nG/mL
  % CELL VIABILITY: 100%
CEM-SS cells; 0.0032 nG/mL
  % CELL VIABILITY: 100%
CEM-SS cells; 0.01 nG/mL
  % CELL VIABILITY: 100%
CEM-SS cells; 0.032 nG/mL
  % CELL VIABILITY: 100%
CEM-SS cells; 0.1 nG/mL
  % CELL VIABILITY: 100%
CEM-SS cells; 0.32 nG/mL
  % CELL VIABILITY: 100%
CEM-SS cells; 1 nG/mL
  % CELL VIABILITY: 100%
CEM-SS cells; 3.2 nG/mL
  % CELL VIABILITY: 100%
CEM-SS cells; 10 nG/mL
  % CELL VIABILITY: 100%
CEM-SS cells; 32 nG/mL
  % CELL VIABILITY: 100%
CEM-SS cells; 100 nG/mL
  % CELL VIABILITY: 100%
CEM-SS cells; human
  TC 25%: >100.00 UG/mL
  TC 50%: >100.00 UG/mL
  TC 95%: >100.00 UG/mL
[7]; 0.01 μg/ml
  TOXICITY VALUES (XTT) % CC: 103.2%
[7]; 0.032 μg/ml
  TOXICITY VALUES (XTT) % CC: 103.6%
[7]; 0.1 μg/ml
  TOXICITY VALUES (XTT) % CC: 97.1%
[7]; 0.32 μg/ml
  TOXICITY VALUES (XTT) % CC: 100.9%
[7]; 1 μg/ml
  TOXICITY VALUES (XTT) % CC: 96.2%
[7]; 3.2 μg/ml
  TOXICITY VALUES (XTT) % CC: 103.5%
[7]; 10 μg/ml
  TOXICITY VALUES (XTT) % CC: 108.3%
[7]; 32 μg/ml
  TOXICITY VALUES (XTT) % CC: 97.3%
[7]; 100 μg/mL
  toxicity in PBMCs: Toxicity was detected
[7]; 100 μg/ml
  TOXICITY VALUES (XTT) % CC: 51.2%
[8]
  MTT % viability (high conc.): 73%
  MTT % viability (low conc.): >100%
  MTT % viability (mid conc.): 63%

## C[C@@H]1COc2c(N3CCN(C(=N)NC(=N)N4CCN(c5c(F)cc6c(=O)c(C(=O)O)cn7c6c5OC[C@@H]7C)CC4)CC3)c(F)cc3c(=O)c(C(=O)O)cn1c23 [BVS-76D (XVII)]
Yersinia pestis; Yersinia pestis
  MIC90: < 4 µg/mL
Bacillus anthracis; Bacillus anthracis
  MIC90: ≤ 0.25 µg/mL
Francisella tularensis; Francisella tularensis
  MIC90: < 4 µg/mL
Burkholderia mallei; Burkholderia mallei
  MIC90: < 4 µg/mL
Y. pestis C092; 21 days
  survival: 100%
Y. pestis C092; mouse, in vivo, 5 mg/kg/day
  protection of infected mice: complete protection
F. tularensis SCHU S4
  life span of the mice (average): 10 days
  outcome by day 13: all the mice in test Groups 3, 4 and 5 were dead
  protection of infected mice: partial protection; also recorded: not significantly effective
H37Rv Colorado strain [9]
  MIC: 0.312 to 0.625 µg/mL (≈ 0.41 to 0.82 µM)
H37Rv Colorado strain [10]
  MBC: 0.625 µg/mL (≈ 0.82 µM)
TB
  IC50: 1.1 µg/mL (≈ 1.44 µM)
  IC90: 1.19 µg/mL (≈ 1.56 µM)
  MIC: 1.25 µg/mL (≈ 1.64 µM)
B. anthracis
  MIC: < 0.06 µg/mL
B. mallei
  MIC: 1 µg/mL (≈ 1.31 µM)
B. pseudomallei
  MIC: 2 to 4 µg/mL (≈ 2.63 to 5.25 µM)
F. tularensis
  MIC: < 0.06 µg/mL
Y. pestis
  MIC: < 0.06 µg/mL
E. coli
  MIC: < 0.06 µg/mL
P. aeruginosa
  MIC: 0.25 µg/mL (≈ 0.328 µM)
Plasmodium falciparum; average of Test 1 and Test 2, read-out: Average IC50
  IC50: 2.72 µM
Plasmodium falciparum; read-out: IC50 Test 1
  IC50: 4.02 µM
Plasmodium falciparum; read-out: IC50 Test 2
  IC50: 1.43 µM
[11]
  symptoms in treated animals incl. unchallenged toxicity group: some inflammation in the urinary, vaginal and rectal areas
Vero Cells; 0.01 μg/ml
  % Viability: 119%
Vero Cells; 0.02 μg/ml
  % Viability: 105%
Vero Cells; 5 μg/ml
  % Viability: 113%
Vero Cells; 10 μg/ml
  % Viability: 100%
Vero Cells; 20 μg/ml, vs […] DMSO controls
  % Viability: 96%

## CO[C@H]1/C=C/O[C@@]2(C)Oc3c(C)c(O)c4c(O)c(c(/C=N/N5CCN(C)CC5)c(O)c4c3C2=O)NC(=O)/C(C)=C\C=C\[C@H](C)[C@H](O)[C@@H](C)[C@@H](O)[C@@H](C)[C@H](OC(C)=O)[C@@H]1C [Rifampin, rifampin, reference compound]
Mtb H37Rv (SRI 1345) [3]
  % inhibition at the MIC concentration: 81%
  MIC: 0.049 µg/mL (≈ 0.0595 µM)
Mtb H37Rv (SRI 1345) [4]
  Colony Count: 23 CFU
Mtb H37Rv (SRI 1345) [4]; Mycobacterium tuberculosis, H37RV
  MBC: 3.12 µg/mL (≈ 3.8 µM)
[5]
  LORA: 1.56 µg/mL
[6]
  Microphage log reduction (high conc.): 2.00
  Microphage log reduction (low conc.): 0.76
  Microphage log reduction (mid conc.): 1.11
H37Rv Colorado strain [9]
  MIC: 0.0031 µg/mL (≈ 0.00377 µM)
H37Rv Colorado strain [10]
  MBC: 0.0063 µg/mL (≈ 0.00766 µM)
TB
  MIC: 0.006 µg/mL (≈ 0.00729 µM)
[8]
  MTT % viability (high conc.): 86%
  MTT % viability (low conc.): 97%
  MTT % viability (mid conc.): 96%

From patent US20140073631A1 (priority 2012, published 2014)
